Test results from PubChem BioAssay (NCI).
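Interpolation was linear, between the two tested concentrations surrounding the appropriate level; five concentrations were tested over 48 hours in 96-well plates. GI50 marks 50% less growth. The concentration for full growth arrest is given as TGI.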

Columns and labels:
Assay in all cases: NCI anticancer screen, dose series, 48 h
NCI/ADR-RES ovarian = test system: NCI/ADR-RES ovarian
LOX IMVI melanoma = test system: LOX IMVI melanoma
MOLT-4 leukemia = test system: MOLT-4 leukemia
UACC-62 melanoma = test system: UACC-62 melanoma
CCRF-CEM leukemia = test system: CCRF-CEM leukemia
HCT-15 colon = test system: HCT-15 colon
BT-549 breast = test system: BT-549 breast
SNB-75 CNS = test system: SNB-75 CNS
UACC-257 melanoma = test system: UACC-257 melanoma
SK-OV-3 ovarian = test system: SK-OV-3 ovarian
DU-145 prostate = test system: DU-145 prostate
ACHN renal = test system: ACHN renal
MALME-3M melanoma = test system: MALME-3M melanoma
EKVX NSCLC = test system: EKVX NSCLC
MDA-MB-435 = test system: MDA-MB-435
HS 578T breast = test system: HS 578T breast
SR leukemia = test system: SR leukemia
SN12C renal = test system: SN12C renal
OVCAR-4 ovarian = test system: OVCAR-4 ovarian
SNB-19 CNS = test system: SNB-19 CNS
OVCAR-5 ovarian = test system: OVCAR-5 ovarian
KM12 colon = test system: KM12 colon
TK-10 renal = test system: TK-10 renal
SF-268 CNS = test system: SF-268 CNS
SK-MEL-2 melanoma = test system: SK-MEL-2 melanoma
SK-MEL-28 melanoma = test system: SK-MEL-28 melanoma
A498 renal = test system: A498 renal
T-47D breast = test system: T-47D breast
NCI-H522 lung = test system: NCI-H522 lung
HCT-116 colon = test system: HCT-116 colon
HL-60(TB) leukemia = test system: HL-60(TB) leukemia
SW-620 colon = test system: SW-620 colon
UO-31 renal = test system: UO-31 renal
K-562 leukemia = test system: K-562 leukemia
OVCAR-3 ovarian = test system: OVCAR-3 ovarian
OVCAR-8 ovarian = test system: OVCAR-8 ovarian
MCF7 breast = test system: MCF7 breast
RPMI-8226 leukemia = test system: RPMI-8226 leukemia
MDA-MB-231 breast = test system: MDA-MB-231 breast
SF-539 CNS = test system: SF-539 CNS
M14 melanoma = test system: M14 melanoma
RXF 393 renal = test system: RXF 393 renal
NCI-H23 lung = test system: NCI-H23 lung
CAKI-1 renal = test system: CAKI-1 renal
HOP-62 NSCLC = test system: HOP-62 NSCLC
786-0 renal = test system: 786-0 renal
NCI-H460 lung = test system: NCI-H460 lung
COLO 205 colon = test system: COLO 205 colon
U251 CNS = test system: U251 CNS
NCI-H226 lung = test system: NCI-H226 lung
HT29 colon = test system: HT29 colon
PC-3 prostate = test system: PC-3 prostate
SK-MEL-5 melanoma = test system: SK-MEL-5 melanoma
SF-295 CNS = test system: SF-295 CNS
A549 NSCLC = test system: A549 NSCLC
HCC-2998 colon = test system: HCC-2998 colon
HOP-92 NSCLC = test system: HOP-92 NSCLC
IGROV1 ovarian = test system: IGROV1 ovarian

CSc1nc(N)cc(Oc2ccc(-c3nc(Nc4cccc(C(F)(F)F)c4)n[nH]3)cc2)n1
GI50 (NCI/ADR-RES ovarian): 1110 nM | TGI (NCI/ADR-RES ovarian): 7450 nM | GI50 (LOX IMVI melanoma): 520 nM | TGI (LOX IMVI melanoma): 2050 nM | GI50 (MOLT-4 leukemia): 1250 nM | TGI (MOLT-4 leukemia): > 38400 nM | GI50 (UACC-62 melanoma): 474 nM | TGI (UACC-62 melanoma): 4720 nM | GI50 (CCRF-CEM leukemia): 773 nM | TGI (CCRF-CEM leukemia): > 43500 nM | GI50 (HCT-15 colon): 531 nM | TGI (HCT-15 colon): 8070 nM | GI50 (BT-549 breast): 721 nM | TGI (BT-549 breast): 6820 nM | GI50 (SNB-75 CNS): 371 nM | TGI (SNB-75 CNS): 4460 nM | GI50 (UACC-257 melanoma): 776 nM | TGI (UACC-257 melanoma): 6340 nM | GI50 (SK-OV-3 ovarian): 516 nM | TGI (SK-OV-3 ovarian): 3930 nM | GI50 (DU-145 prostate): 1280 nM | TGI (DU-145 prostate): 9530 nM | GI50 (ACHN renal): 873 nM | TGI (ACHN renal): 9640 nM | GI50 (MALME-3M melanoma): 1190 nM | TGI (MALME-3M melanoma): 8420 nM | GI50 (EKVX NSCLC): 1660 nM | TGI (EKVX NSCLC): 10100 nM | GI50 (MDA-MB-435): 255 nM | TGI (MDA-MB-435): 744 nM | GI50 (HS 578T breast): 642 nM | TGI (HS 578T breast): 9290 nM | GI50 (SR leukemia): 354 nM | TGI (SR leukemia): > 100000 nM | GI50 (SN12C renal): 1150 nM | TGI (SN12C renal): 12300 nM | GI50 (OVCAR-4 ovarian): 2060 nM | TGI (OVCAR-4 ovarian): 13100 nM | GI50 (SNB-19 CNS): 1220 nM | TGI (SNB-19 CNS): 14900 nM | GI50 (OVCAR-5 ovarian): 2380 nM | TGI (OVCAR-5 ovarian): 14600 nM | GI50 (KM12 colon): 498 nM | TGI (KM12 colon): 4460 nM | GI50 (TK-10 renal): 1540 nM | TGI (TK-10 renal): 7730 nM | GI50 (SF-268 CNS): 894 nM | TGI (SF-268 CNS): 12500 nM | GI50 (SK-MEL-2 melanoma): 789 nM | TGI (SK-MEL-2 melanoma): 6060 nM | GI50 (SK-MEL-28 melanoma): 1460 nM | TGI (SK-MEL-28 melanoma): 10400 nM | GI50 (A498 renal): 486 nM | TGI (A498 renal): 5250 nM | GI50 (T-47D breast): 810 nM | TGI (T-47D breast): 5110 nM | GI50 (NCI-H522 lung): 651 nM | TGI (NCI-H522 lung): 4060 nM | GI50 (HCT-116 colon): 456 nM | TGI (HCT-116 colon): 2150 nM | GI50 (HL-60(TB) leukemia): 2360 nM | TGI (HL-60(TB) leukemia): 9230 nM | GI50 (SW-620 colon): 478 nM | TGI (SW-620 colon): 13600 nM | GI50 (UO-31 renal): 1600 nM | TGI (UO-31 renal): 11300 nM | GI50 (K-562 leukemia): 522 nM | TGI (K-562 leukemia): > 35300 nM | GI50 (OVCAR-3 ovarian): 336 nM | TGI (OVCAR-3 ovarian): 1220 nM | GI50 (OVCAR-8 ovarian): 1360 nM | TGI (OVCAR-8 ovarian): 10300 nM | GI50 (MCF7 breast): 357 nM | TGI (MCF7 breast): 5020 nM | GI50 (RPMI-8226 leukemia): 1900 nM | TGI (RPMI-8226 leukemia): 12600 nM | GI50 (MDA-MB-231 breast): 1790 nM | TGI (MDA-MB-231 breast): 8630 nM | GI50 (SF-539 CNS): 621 nM | TGI (SF-539 CNS): 4190 nM | GI50 (M14 melanoma): 483 nM | TGI (M14 melanoma): 3850 nM | GI50 (RXF 393 renal): 504 nM | TGI (RXF 393 renal): 2250 nM | GI50 (NCI-H23 lung): 893 nM | TGI (NCI-H23 lung): 10200 nM | GI50 (CAKI-1 renal): 640 nM | TGI (CAKI-1 renal): 3670 nM | GI50 (HOP-62 NSCLC): 593 nM | TGI (HOP-62 NSCLC): 4990 nM | GI50 (786-0 renal): 1280 nM | TGI (786-0 renal): 4860 nM | GI50 (NCI-H460 lung): 440 nM | TGI (NCI-H460 lung): 3030 nM | GI50 (COLO 205 colon): 897 nM | TGI (COLO 205 colon): 4050 nM | GI50 (U251 CNS): 548 nM | TGI (U251 CNS): 4730 nM | GI50 (NCI-H226 lung): 1810 nM | TGI (NCI-H226 lung): 7690 nM | GI50 (HT29 colon): 432 nM | TGI (HT29 colon): 2710 nM | GI50 (PC-3 prostate): 1130 nM | TGI (PC-3 prostate): 9410 nM | GI50 (SK-MEL-5 melanoma): 416 nM | TGI (SK-MEL-5 melanoma): 1570 nM | GI50 (SF-295 CNS): 784 nM | TGI (SF-295 CNS): 6240 nM | GI50 (A549 NSCLC): 737 nM | TGI (A549 NSCLC): 9510 nM | GI50 (HCC-2998 colon): 1330 nM | TGI (HCC-2998 colon): 4960 nM | GI50 (HOP-92 NSCLC): 1300 nM | TGI (HOP-92 NSCLC): 6000 nM | GI50 (IGROV1 ovarian): 1880 nM | TGI (IGROV1 ovarian): 18300 nM
